Data published in US20200317660A1, “Quinazolinone Compound and Application Thereof” (LUOXIN PHARMACEUTICAL (SHANGHAI) CO., LTD., priority 2017, published 2020).

Key:
PI3Kα = target: T1, PI3Kα (Homo sapiens, UniProt P42336); assay: In vitro test of enzyme activity (ADP-Glo lipokinase), PI3K alpha; type: biochemical; details: 40 μM ATP, 50 μM PIP2:3PS, 120 min
T1 construct: purchased Millipore 14-602-K

PI3Kδ = target: T2, PI3Kδ (Homo sapiens, UniProt O00329); assay: In vitro test of enzyme activity (ADP-Glo lipokinase), PI3K delta; type: biochemical; details: 40 μM ATP, 50 μM PIP2:3PS, 120 min
T2 construct: purchased Millipore 14-604-K
T2 sequence (O00329 whole entry): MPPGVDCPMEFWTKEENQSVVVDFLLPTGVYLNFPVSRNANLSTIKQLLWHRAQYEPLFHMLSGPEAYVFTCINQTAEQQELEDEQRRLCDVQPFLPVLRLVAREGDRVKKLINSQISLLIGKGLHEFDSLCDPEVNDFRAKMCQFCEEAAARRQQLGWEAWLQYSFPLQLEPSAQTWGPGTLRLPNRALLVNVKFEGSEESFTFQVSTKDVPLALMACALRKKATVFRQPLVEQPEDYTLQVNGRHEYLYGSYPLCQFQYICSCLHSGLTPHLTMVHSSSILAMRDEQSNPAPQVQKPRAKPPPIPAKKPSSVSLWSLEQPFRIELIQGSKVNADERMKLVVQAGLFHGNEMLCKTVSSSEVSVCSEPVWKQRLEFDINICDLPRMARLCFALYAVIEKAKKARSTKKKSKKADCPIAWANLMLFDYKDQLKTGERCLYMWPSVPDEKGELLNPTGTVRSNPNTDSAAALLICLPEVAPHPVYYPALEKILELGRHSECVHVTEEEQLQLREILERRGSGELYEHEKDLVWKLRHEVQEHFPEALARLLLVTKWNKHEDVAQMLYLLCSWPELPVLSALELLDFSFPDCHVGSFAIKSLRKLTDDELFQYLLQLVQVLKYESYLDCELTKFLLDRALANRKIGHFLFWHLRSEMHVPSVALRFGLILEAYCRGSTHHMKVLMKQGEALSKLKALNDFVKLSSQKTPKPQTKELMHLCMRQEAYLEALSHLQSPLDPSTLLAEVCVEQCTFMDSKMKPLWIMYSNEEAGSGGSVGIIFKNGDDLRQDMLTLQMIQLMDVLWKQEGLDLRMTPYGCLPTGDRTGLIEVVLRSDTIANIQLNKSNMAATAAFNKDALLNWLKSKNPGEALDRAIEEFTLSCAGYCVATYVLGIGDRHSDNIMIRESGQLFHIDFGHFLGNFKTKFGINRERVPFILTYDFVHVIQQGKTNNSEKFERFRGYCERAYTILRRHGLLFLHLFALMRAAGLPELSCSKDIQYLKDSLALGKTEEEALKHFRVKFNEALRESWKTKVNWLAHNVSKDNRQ
T2 sequence (P27986 whole entry partner): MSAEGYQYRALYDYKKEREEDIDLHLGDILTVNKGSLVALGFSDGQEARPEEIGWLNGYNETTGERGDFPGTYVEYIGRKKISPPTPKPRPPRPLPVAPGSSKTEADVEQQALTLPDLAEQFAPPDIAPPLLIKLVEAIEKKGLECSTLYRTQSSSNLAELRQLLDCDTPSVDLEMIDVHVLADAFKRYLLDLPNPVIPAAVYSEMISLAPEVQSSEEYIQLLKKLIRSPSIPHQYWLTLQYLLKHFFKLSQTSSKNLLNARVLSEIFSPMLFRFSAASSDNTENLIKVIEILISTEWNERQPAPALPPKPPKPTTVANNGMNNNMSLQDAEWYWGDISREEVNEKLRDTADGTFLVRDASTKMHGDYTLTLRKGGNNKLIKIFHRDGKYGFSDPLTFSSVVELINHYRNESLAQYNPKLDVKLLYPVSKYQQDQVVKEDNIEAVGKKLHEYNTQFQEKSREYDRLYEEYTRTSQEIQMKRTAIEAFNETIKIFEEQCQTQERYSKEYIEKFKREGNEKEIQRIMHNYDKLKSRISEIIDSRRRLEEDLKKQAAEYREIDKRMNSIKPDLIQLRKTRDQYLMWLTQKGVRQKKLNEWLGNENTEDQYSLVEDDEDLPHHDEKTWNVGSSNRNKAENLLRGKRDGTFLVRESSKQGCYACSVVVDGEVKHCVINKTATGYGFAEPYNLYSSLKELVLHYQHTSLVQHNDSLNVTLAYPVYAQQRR

[1] = tested on: phosphorylation of PI3K downstream protein Akt in MCF7 cells; assay: In vitro test of cells activity: ELISA of Akt phosphorylation in MCF7 cells; type: cell-based; details: Homo sapiens, MCF7, 2 h, 2 h compound, insulin 10 μg/mL stimulation, pAkt ELISA, read-out: MCF7 Cell IC50
In short: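 MCF7 cells were serum-starved overnight, exposed to 10-point three-fold compound dilutions for 2 h at 37°C, then stimulated with 10 μg/mL insulin for 30 min. Lysates were assayed for phospho-Akt by ELISA.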

T1 sequence (P42336 whole entry): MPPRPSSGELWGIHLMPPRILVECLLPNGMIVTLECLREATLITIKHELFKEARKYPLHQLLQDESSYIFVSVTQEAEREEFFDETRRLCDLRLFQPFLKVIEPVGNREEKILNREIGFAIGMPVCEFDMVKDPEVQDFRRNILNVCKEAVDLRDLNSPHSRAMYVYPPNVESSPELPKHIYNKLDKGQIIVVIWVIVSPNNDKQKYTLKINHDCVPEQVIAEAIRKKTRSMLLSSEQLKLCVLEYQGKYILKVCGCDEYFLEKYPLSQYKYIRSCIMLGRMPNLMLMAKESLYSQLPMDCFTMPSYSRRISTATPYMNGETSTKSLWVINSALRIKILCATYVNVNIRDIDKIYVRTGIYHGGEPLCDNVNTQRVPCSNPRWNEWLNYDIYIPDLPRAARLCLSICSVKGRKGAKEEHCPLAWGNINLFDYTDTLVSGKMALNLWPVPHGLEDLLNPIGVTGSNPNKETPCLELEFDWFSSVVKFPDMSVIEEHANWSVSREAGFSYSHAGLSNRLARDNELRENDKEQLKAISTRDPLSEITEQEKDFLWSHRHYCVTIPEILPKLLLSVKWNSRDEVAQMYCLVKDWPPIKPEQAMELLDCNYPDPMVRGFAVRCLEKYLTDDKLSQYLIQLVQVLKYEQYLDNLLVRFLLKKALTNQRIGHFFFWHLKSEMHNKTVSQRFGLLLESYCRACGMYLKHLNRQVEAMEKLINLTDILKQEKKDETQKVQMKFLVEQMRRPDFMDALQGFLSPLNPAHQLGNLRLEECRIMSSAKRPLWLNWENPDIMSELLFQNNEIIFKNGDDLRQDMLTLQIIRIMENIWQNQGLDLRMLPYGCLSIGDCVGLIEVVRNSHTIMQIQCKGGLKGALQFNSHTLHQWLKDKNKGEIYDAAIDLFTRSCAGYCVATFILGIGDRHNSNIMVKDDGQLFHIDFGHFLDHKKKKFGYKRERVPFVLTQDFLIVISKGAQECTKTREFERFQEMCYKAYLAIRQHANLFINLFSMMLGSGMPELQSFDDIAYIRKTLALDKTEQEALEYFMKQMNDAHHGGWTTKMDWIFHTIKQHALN
T1 sequence (P27986 whole entry partner): as the sequence (P27986 whole entry partner) above

IC50 (PI3Kα): 1.1 nM
IC50 (PI3Kδ): 2.1 nM
IC50 [1]: 9.43 nM
SMILES: CNC(=O)CCCn1cnc2ccc(-c3cnc(OC)c(NS(=O)(=O)c4ccc(F)cc4Cl)c3)cc2c1=O [WX198]
